# Test results from ChEMBL document CHEMBL1201862, “PubChem BioAssay data set” (2004).
#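 Each compound was tested at five concentrations against cells in 96-well plates for 48 hours. GI50 is the concentration that inhibits growth by half.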 Activity calls are given as the source filed them. No stated cut-off is given here; in the data, active = GI50 up to about 1.1 µM and inactive = higher.
# What was measured:
# Test in all cases: inhibition of tumour cell growth, NCI panel, 48 h
# SF-268 = tested on: SF-268
# HL-60 = tested on: HL-60
# HCT-15 = tested on: HCT-15
# KM12 = tested on: KM12
# CCRF-CEM = tested on: CCRF-CEM
# RXF 393 = tested on: RXF 393
# U-251 = tested on: U-251
# SNB-75 = tested on: SNB-75
# HT-29 = tested on: HT-29
# HOP-18 = tested on: HOP-18
# MOLT-4 = tested on: MOLT-4
# K562 = tested on: K562
# SK-MEL-2 = tested on: SK-MEL-2
# SK-OV-3 = tested on: SK-OV-3
# HOP-62 = tested on: HOP-62
# DMS-273 = tested on: DMS-273
# NCI-H460 = tested on: NCI-H460
# RPMI-8226 = tested on: RPMI-8226
# HOP-92 = tested on: HOP-92
# SW-620 = tested on: SW-620
# LOX IMVI = tested on: LOX IMVI
# A498 = tested on: A498
# SF-539 = tested on: SF-539
# UO-31 = tested on: UO-31
# SF-295 = tested on: SF-295
# NCI/ADR-RES = tested on: NCI/ADR-RES
# NCI-H23 = tested on: NCI-H23
# SK-MEL-28 = tested on: SK-MEL-28
# IGROV-1 = tested on: IGROV-1
# SN12C = tested on: SN12C
# NCI-H522 = tested on: NCI-H522
# MDA-N = tested on: MDA-N
# PC-3 = tested on: PC-3
# CAKI-1 = tested on: CAKI-1
# SK-MEL-5 = tested on: SK-MEL-5
# OVCAR-5 = tested on: OVCAR-5
# MDA-MB-435 = tested on: MDA-MB-435
# T47D = tested on: T47D
# TK-10 = tested on: TK-10
# EKVX = tested on: EKVX
# MDA-MB-231 = tested on: MDA-MB-231
# M14 = tested on: M14
# OVCAR-8 = tested on: OVCAR-8
# MCF7 = tested on: MCF7
# HCC 2998 = tested on: HCC 2998
# Hs-578T = tested on: Hs-578T
# A549 = tested on: A549
# DU-145 = tested on: DU-145
# Malme-3M = tested on: Malme-3M
# COLO 205 = tested on: COLO 205
# 786-0 = tested on: 786-0
# UACC-62 = tested on: UACC-62
# NCI-H226 = tested on: NCI-H226
# SR = tested on: SR
# SNB-19 = tested on: SNB-19
# HCT-116 = tested on: HCT-116
# BT-549 = tested on: BT-549
# UACC-257 = tested on: UACC-257
# OVCAR-4 = tested on: OVCAR-4
# ACHN = tested on: ACHN
# OVCAR-3 = tested on: OVCAR-3
smiles,measurement,setting,value
CN(O)C(=O)SCC(NC(=O)CCC(N)C(=O)O)C(=O)NCC(=O)O (stereo not given),GI50,SF-268,1630 µM (inactive)
same,GI50,HL-60,318 µM (inactive)
same,GI50,HCT-15,24.3 µM
same,GI50,KM12,1050 µM (inactive)
same,GI50,CCRF-CEM,1.67 µM (inactive)
same,GI50,RXF 393,518 µM (inactive)
same,GI50,U-251,41.7 µM (inactive)
same,GI50,SNB-75,618 µM (inactive)
same,GI50,HT-29,1.31 µM (inactive)
same,GI50,HOP-18,619 µM (inactive)
same,GI50,MOLT-4,1100 µM (inactive)
same,GI50,K562,305 µM (inactive)
same,GI50,SK-MEL-2,446 µM (inactive)
same,GI50,SK-OV-3,294 µM (inactive)
same,GI50,HOP-62,173 µM (inactive)
same,GI50,DMS-273,1.52 µM (inactive)
same,GI50,NCI-H460,783 µM (inactive)
same,GI50,RPMI-8226,964 µM (inactive)
same,GI50,HOP-92,294 µM (inactive)
same,GI50,SW-620,1760 µM (inactive)
same,GI50,LOX IMVI,1.46 µM (inactive)
CCC(C)OC(=O)/C(Br)=C1/OC(=O)c2ccccc2-c2ccccc21 (stereo not given),GI50,A498,40.7 µM (inactive)
same,GI50,SF-268,56.4 µM (inactive)
same,GI50,SF-539,24 µM (inactive)
same,GI50,UO-31,25.2 µM (inactive)
same,GI50,SF-295,35.6 µM (inactive)
same,GI50,NCI/ADR-RES,20.4 µM (inactive)
same,GI50,NCI-H23,50 µM (inactive)
same,GI50,SK-MEL-28,30.1 µM (inactive)
same,GI50,HL-60,> 100 µM (inactive)
same,GI50,IGROV-1,> 10 µM (inactive)
same,GI50,SN12C,34.2 µM (inactive)
same,GI50,NCI-H522,18.7 µM (inactive)
same,GI50,HCT-15,18 µM
same,GI50,KM12,23.8 µM (inactive)
same,GI50,MDA-N,32.6 µM (inactive)
same,GI50,PC-3,31.8 µM (inactive)
same,GI50,CCRF-CEM,4.78 µM (inactive)
same,GI50,RXF 393,9.75 µM (inactive)
same,GI50,U-251,> 10 µM (inactive)
same,GI50,SNB-75,31.6 µM (inactive)
same,GI50,CAKI-1,43.4 µM (inactive)
same,GI50,SK-MEL-5,21.2 µM (inactive)
same,GI50,OVCAR-5,80 µM (inactive)
same,GI50,MDA-MB-435,26.9 µM (inactive)
same,GI50,HT-29,23.2 µM (inactive)
same,GI50,T47D,58.2 µM (inactive)
same,GI50,TK-10,19.4 µM (inactive)
same,GI50,EKVX,> 100 µM (inactive)
same,GI50,MOLT-4,6.85 µM (inactive)
same,GI50,MDA-MB-231,> 10 µM (inactive)
same,GI50,M14,32.1 µM (inactive)
same,GI50,OVCAR-8,37.6 µM (inactive)
same,GI50,K562,4.42 µM (inactive)
same,GI50,SK-MEL-2,24.2 µM (inactive)
same,GI50,MCF7,41 µM (inactive)
same,GI50,HCC 2998,16.9 µM (inactive)
same,GI50,SK-OV-3,45.6 µM (inactive)
same,GI50,HOP-62,15.9 µM (inactive)
same,GI50,Hs-578T,45.4 µM (inactive)
same,GI50,A549,36.6 µM (inactive)
same,GI50,DU-145,> 100 µM (inactive)
same,GI50,Malme-3M,29.7 µM (inactive)
same,GI50,COLO 205,18.3 µM (inactive)
same,GI50,NCI-H460,26.2 µM (inactive)
same,GI50,786-0,48.6 µM (inactive)
same,GI50,RPMI-8226,22.3 µM (inactive)
same,GI50,HOP-92,27.3 µM (inactive)
same,GI50,UACC-62,19.4 µM (inactive)
same,GI50,NCI-H226,55.2 µM (inactive)
same,GI50,SW-620,18.1 µM (inactive)
same,GI50,SR,> 10 µM (inactive)
same,GI50,SNB-19,49.5 µM (inactive)
same,GI50,HCT-116,17.6 µM (inactive)
same,GI50,LOX IMVI,18.2 µM (inactive)
same,GI50,BT-549,18.8 µM (inactive)
same,GI50,UACC-257,88.7 µM (inactive)
same,GI50,OVCAR-4,62.5 µM (inactive)
same,GI50,ACHN,40.1 µM (inactive)
same,GI50,OVCAR-3,27.4 µM (inactive)
